Numbered stars: 1 amine (or outer) side, 2 acyl side, 3 side chain; on linkers, the order of the positions; unused ones are H or OH. Bridge positions count the residues as written; N and C are the ends. Square brackets hold non-standard residues; d marks the D form. Peptide text beside a SMILES is read from it. I, II: the chains in the order shown. BMH = O=C1CC([*:1])C(=O)N1CCCCCCN1C(=O)CC([*:2])C1=O; Oic = O=C(O)[C@@H]1C[C@@H]2CCCC[C@@H]2N1; Hyp = O=C(O)[C@@H]1C[C@@H](O)CN1; dTic = O=C(O)[C@H]1Cc2ccccc2CN1
What was measured:
[1] = molecular target: T1, BK2 receptor (Oryctolagus cuniculus, UniProt Q28642); assay: blood pressure response to BK2 agonist in LPS-pretreated rabbits; format: in vivo, rabbit; design: key to observed antagonist activity BK2, 1 / observed antagonist activity BK2, 3 / observed antagonist activity BK2, 10: +: complete blockade of the blood pressure response to the appropriate agonist; ±: partial blockade; -: no observable effect at the dose indicated; settings: for observed antagonist activity BK2, 1: 1 μg kg^-1 min^-1; for observed antagonist activity BK2, 1 / observed antagonist activity BK2, 3 / observed antagonist activity BK2, 10: rabbits given LPS (10 μg) 20 hours before; for observed antagonist activity BK2, 3: 3 μg kg^-1 min^-1; for observed antagonist activity BK2, 10: 10 μg kg^-1 min^-1
T1 construct: from tissue; host or cells: whole animal (rabbit, LPS-pretreated), blood pressure response
T1 sequence (Q28642 1-367): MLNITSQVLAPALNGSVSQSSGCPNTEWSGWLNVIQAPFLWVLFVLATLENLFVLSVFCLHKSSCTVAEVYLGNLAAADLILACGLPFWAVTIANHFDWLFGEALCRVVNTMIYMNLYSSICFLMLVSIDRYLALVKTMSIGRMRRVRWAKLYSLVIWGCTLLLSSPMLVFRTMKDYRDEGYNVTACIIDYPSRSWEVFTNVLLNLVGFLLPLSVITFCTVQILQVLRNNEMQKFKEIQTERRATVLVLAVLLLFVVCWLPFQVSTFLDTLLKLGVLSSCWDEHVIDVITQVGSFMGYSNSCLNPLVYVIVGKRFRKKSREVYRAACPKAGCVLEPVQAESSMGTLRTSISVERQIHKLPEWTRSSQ
From the text: (§1) That heterodimeric constructs block the activities attributable to two different receptor populations simultaneously when administered to an intact animal has been known using a standard assay of BK2 and BK1 receptor activity (see, deBlois, Bouthillier, and Marceau, Brit. J. Pharm., 103, 1057-1066, 1991). In normal rabbits, no changes in systemic arterial blood pressure can be detected in response to challenges with BK1 receptor agonists. There is, however, a predictable and reproducible response to BK2 agonists constituatively present. After stimulation with LPS BK1 receptor activity will develop over time such that profound responses to doses of BK1 agonists that were previously inconsequential in nature are observed after a 3-4 hour period. Responses to BK2 agonists are unchanged in these animals. At this point, one can test directly the ability to block both BK1 and BK2 mediated reductions in systemic blood pressure simultaneously with a heterodimeric antagonist.
(§2) FIGS. 8a, b and c comprise actual blood pressure traces from a series of experiments designed to illustrate the ability of a representative heterodimer (CP-0364) to block both BK1 - and BK2 - mediated hypotensive responses simultaneously.
(§3) The expected antagonist activity is based on the data summarized in Tables K and L. The in vivo experimental data reported are qualitative measurements of antagonist activity at three different doses (1, 3 and 10 μg kg^-1 min^-1) in rabbits given a sub-lethal dose of LPS (10 μg), 20 hours before initiation of the experiment.

[2] = molecular target: T2, BK1 receptor (Oryctolagus cuniculus, UniProt P48748); assay: blood pressure response to BK1 agonist in LPS-pretreated rabbits; format: in vivo, rabbit; design: from tissue; host or cells: whole animal (rabbit, LPS-pretreated), blood pressure response; key to observed antagonist activity BK1, 1 / observed antagonist activity BK1, 3 / observed antagonist activity BK1, 10: +: complete blockade of the blood pressure response to the appropriate agonist; ±: partial blockade; -: no observable effect at the dose indicated; settings: for observed antagonist activity BK1, 1: 1 μg kg^-1 min^-1; for observed antagonist activity BK1, 1 / observed antagonist activity BK1, 3 / observed antagonist activity BK1, 10: rabbits given LPS (10 μg) 20 hours before; for observed antagonist activity BK1, 3: 3 μg kg^-1 min^-1; for observed antagonist activity BK1, 10: 10 μg kg^-1 min^-1
T2 sequence (P48748 1-352): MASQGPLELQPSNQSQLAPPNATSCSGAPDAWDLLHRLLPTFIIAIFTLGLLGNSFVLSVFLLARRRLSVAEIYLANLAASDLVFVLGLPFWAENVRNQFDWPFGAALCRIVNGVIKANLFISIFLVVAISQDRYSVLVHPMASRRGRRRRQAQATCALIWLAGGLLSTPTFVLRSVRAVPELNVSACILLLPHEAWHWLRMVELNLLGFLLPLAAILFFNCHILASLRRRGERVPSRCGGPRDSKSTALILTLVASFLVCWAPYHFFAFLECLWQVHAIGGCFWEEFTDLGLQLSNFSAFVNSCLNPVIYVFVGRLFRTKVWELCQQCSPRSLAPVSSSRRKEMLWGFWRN
From the text: as §1, §2, §3

[3] = molecular target: T3, BK2 -receptor (Rattus norvegicus, UniProt P25023); assay: rat uterus (RU) in vitro, antagonism of BK
T3 construct: guinea-pig ileum (GPI), rat uterus (RU) and rabbit jugular vein (RJV); from tissue; host or cells: rat uterus
T3 sequence (P25023 1-396): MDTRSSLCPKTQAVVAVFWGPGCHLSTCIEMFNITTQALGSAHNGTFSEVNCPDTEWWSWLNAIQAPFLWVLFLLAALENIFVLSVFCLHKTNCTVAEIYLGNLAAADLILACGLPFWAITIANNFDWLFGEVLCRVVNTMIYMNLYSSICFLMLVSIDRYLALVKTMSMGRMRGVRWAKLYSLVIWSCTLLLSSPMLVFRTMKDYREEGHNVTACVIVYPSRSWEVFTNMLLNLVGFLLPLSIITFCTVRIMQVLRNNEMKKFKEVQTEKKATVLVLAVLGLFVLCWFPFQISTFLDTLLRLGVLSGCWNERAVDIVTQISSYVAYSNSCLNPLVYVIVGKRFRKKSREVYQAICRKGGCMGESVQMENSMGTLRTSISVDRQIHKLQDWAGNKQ
Method: Thus, in vitro studies were performed on standard assay systems, namely, guinea-pig ileum (GPI), rat uterus (RU) and rabbit jugular vein (RJV). […] The potency of each compound was assessed as a pA2 value according to the method of Arunlakshana & Schild, Br. J. Pharmacol. Chemother., 14:48-58 (1959). The pA2 can be defined as the negative logarithm of the molar concentration of the antagonist in the presence of which the potency of the agonist is reduced two-fold, i.e., twice the amount of agonist is required to produce a given response in the presence of, than in the absence of, the antagonist. A high potency of antagonism is indicated by a high pA2 value. i.e., a low concentration of antagonist is effective.
The percentage recovery (% Rec) was also determined for compounds with respect to each assay.
With respect to duration of activity, it is noted that after exposure to the highest concentration of antagonist, each tissue was washed extensively and then assessed for recovery from the antagonist effect.
Potency in the rat uterus assay was assessed as described above and pA2 values determined.

[4] = rabbits after endotoxin pre-treatment, agonist i.v. bolus

SMILES	observed antagonist activity BK2, 1 [1]	observed antagonist activity BK2, 3 [1]	observed antagonist activity BK2, 10 [1]	block of BK2-mediated hypotensive response (FIG. 8) [1, 4]	observed antagonist activity BK1, 1 [2]	observed antagonist activity BK1, 3 [2]	observed antagonist activity BK1, 10 [2]	block of BK1-mediated hypotensive response (FIG. 8) [2, 4]	% REC rat uterus ([3]; percentage recovery after washing)	pA2 rat uterus (BK2) ([3]; against BK)
CC(C)C[C@H](NC(=O)[C@@H]1CCCN1C(=O)[C@H](CO)NC(=O)[C@H](Cc1ccccc1)NC(=O)CNC(=O)[C@@H]1C[C@@H](O)CN1C(=O)[C@@H]1CCCN1C(=O)[C@H](CSC1CC(=O)N(CCCCCCN2C(=O)CC(SC[C@H](NC(=O)[C@H](Cc3ccccc3)NC(=O)CNC(=O)[C@@H]3C[C@@H](O)CN3C(=O)[C@@H]3CCCN3C(=O)[C@H](CCCNC(=N)N)NC(=O)[C@H](N)CCCNC(=N)N)C(=O)N[C@H](Cc3ccccc3)C(=O)N[C@@H](CC(C)C)C(=O)N[C@@H](CCCNC(=N)N)C(=O)O)C2=O)C1=O)NC(=O)[C@H](N)CCCNC(=N)N)C(=O)O (stereo partly shown) [CP-0364] (HELM PEPTIDE1{[dR].R.P.[Hyp].G.F.C.[dF].L.R}|PEPTIDE2{[dR].C.P.[Hyp].G.F.S.P.L}|CHEM1{[O=C1CC([*:1])C(=O)N1CCCCCCN1C(=O)CC([*:2])C1=O]}$PEPTIDE1,CHEM1,7:R3-1:R1|PEPTIDE2,CHEM1,2:R3-1:R2$$$V2.0; N-terminus and C-terminus assumed)	+	+	+	capable of blocking the response profile to both agonists simultaneously	+	+	+	capable of blocking the response profile to both agonists simultaneously		
CC(C)C[C@H](NC(=O)[C@@H](Cc1ccccc1)NC(=O)[C@H](CO)NC(=O)[C@H](CSC1CC(=O)N(CCCCCCN2C(=O)CC(SC[C@H](NC(=O)CNC(=O)[C@@H]3C[C@@H](O)CN3C(=O)[C@@H]3CCCN3C(=O)[C@H](CCCNC(=N)N)NC(=O)[C@H](N)CCCNC(=N)N)C(=O)N[C@@H](CO)C(=O)N[C@H](Cc3ccccc3)C(=O)N[C@@H](CC(C)C)C(=O)N[C@@H](CCCNC(=N)N)C(=O)O)C2=O)C1=O)NC(=O)CNC(=O)[C@@H]1C[C@@H](O)CN1C(=O)[C@@H]1CCCN1C(=O)[C@H](CCCNC(=N)N)NC(=O)[C@H](N)CCCNC(=N)N)C(=O)N[C@@H](CCCNC(=N)N)C(=O)O (stereo partly shown) [CP-0156] (HELM PEPTIDE1{[dR].R.P.[Hyp].G.C.S.[dF].L.R}|PEPTIDE2{[dR].R.P.[Hyp].G.C.S.[dF].L.R}|CHEM1{[O=C1CC([*:1])C(=O)N1CCCCCCN1C(=O)CC([*:2])C1=O]}$PEPTIDE1,CHEM1,6:R3-1:R1|PEPTIDE2,CHEM1,6:R3-1:R2$$$V2.0)									75%	
CC(C)C[C@H](NC(=O)[C@@H](Cc1ccccc1)NC(=O)[C@H](CSC1CC(=O)N(CCCCCCN2C(=O)CC(SC[C@H](N)C(=O)N[C@@H](Cc3ccc(O)cc3)C(=O)N[C@H](Cc3c[nH]c4ccccc34)C(=O)N[C@H](C(=O)N[C@H](Cc3c[nH]c4ccccc34)C(=O)N[C@H](Cc3c[nH]c4ccccc34)C(=O)N[C@@H](CCCNC(=N)N)C(N)=O)C(C)C)C2=O)C1=O)NC(=O)[C@H](Cc1ccccc1)NC(=O)CNC(=O)[C@@H]1C[C@@H](O)CN1C(=O)[C@@H]1CCCN1C(=O)[C@H](CCCNC(=N)N)NC(=O)[C@H](N)CCCNC(=N)N)C(=O)N[C@@H](CCCNC(=N)N)C(=O)O (stereo partly shown) [CP-0411] (HELM PEPTIDE1{[dR].R.P.[Hyp].G.F.C.[dF].L.R}|PEPTIDE2{C.Y.[dW].V.[dW].[dW].R.[am]}|CHEM1{[O=C1CC([*:1])C(=O)N1CCCCCCN1C(=O)CC([*:2])C1=O]}$PEPTIDE1,CHEM1,7:R3-1:R1|PEPTIDE2,CHEM1,1:R3-1:R2$$$V2.0)										7.5 ± 0.1
CC(C)C[C@H](NC(=O)[C@@H]1CCCN1C(=O)[C@H](CO)NC(=O)[C@H](Cc1ccccc1)NC(=O)CNC(=O)[C@@H]1CCCN1C(=O)[C@@H]1CCCN1C(=O)[C@H](CCCNC(=N)N)NC(=O)[C@@H](N)CCCCN)C(=O)O [CP-0298, des ARG^9-[LYS^0, LEU^8]-BK, reference compound]	-	-	-		+	+	+			
N=C(N)NCCC[C@@H](N)C(=O)N[C@@H](CCCNC(=N)N)C(=O)N1CCC[C@H]1C(=O)N1C[C@H](O)C[C@H]1C(=O)NCC(=O)N[C@@H](Cc1ccccc1)C(=O)N[C@@H](CSC1CC(=O)N(CCCCCCN2C(=O)CC(SC[C@H](NC(=O)[C@H](N)CCCNC(=N)N)C(=O)N3CCC[C@H]3C(=O)N3C[C@H](O)C[C@H]3C(=O)NCC(=O)N[C@@H](Cc3ccccc3)C(=O)N[C@@H](CO)C(=O)N3Cc4ccccc4C[C@@H]3C(=O)N3[C@H](C(=O)O)C[C@@H]4CCCC[C@@H]43)C2=O)C1=O)C(=O)N1Cc2ccccc2C[C@@H]1C(=O)N1[C@H](C(=O)N[C@@H](CCCNC(=N)N)C(=O)O)C[C@@H]2CCCC[C@@H]21 (stereo partly shown) [CP-0365] (I: H-[dR]RP[Hyp]GFC[dTic][Oic]R-OH / II: H-[dR]CP[Hyp]GFS[dTic][Oic]-OH; linker I:7-II:2 via BMH; N-terminus and C-terminus assumed)	-	+	+		-	+	+			
